This is an account of results in patent US9018260B2, “Indanesulfamide derivatives” (Eisai R&D Management Co., Ltd., priority 2012, dated 2015).

Usually ED50 stands for the dose that gives a 50% effect, or the effect in half of the subjects. Lower therefore signals greater potency. By TD50 is commonly meant the dose at which the toxic effect under study appears in half of the subjects. Higher therefore signals harm only at a large dose.

Data set [1] concerns corneal kindled male C57Bl/6 mice. In words: Mouse corneal kindling model. It is filed as in vivo. The note with it: for ED50: Mus musculus, dosage where 50% of animals showed seizure severity score 2 or less; for Seizure severity score (Average): Racine's scale. The text has this:
Male C57Bl/6 mice were stimulated twice daily for 10 days. The electric-stimulations with current intensities of 4.0 mA and duration of 3 s (pulse frequency 50 Hz) were applied via corneally placed saline-soaked copper electrodes.
Seizure severity was ranked according to a modified scoring system of the Racine's scale (Clin. Neurophysiol. 1972:32:281-294): Score 1, mild facial clonus and eye blinking; 2, severe facial clonus, head nodding, chewing; 3, unilateral or alternating forelimb clonus; 4, bilateral forelimb clonus with rearing; 5, bilateral forelimb clonus with rearing and falling; 6, tonic fore- and/or hindlimb extension. The fully kindled animals with the severity score 4 or more were used for evaluation.
Test compounds were dissolved in the vehicle (0.45% methyl cellulose/4.5% cremophor/10% DMSO), then orally (p.o.) or intraperitoneally (i.p.) administered to mice. The vehicle was orally administered as controls.
Electric stimulation was applied at 1 hour after p.o. or 20 minutes after i.p administration. Stimulation parameters were the same as during the kindling process. After electric stimulation, seizure severity was recorded for 30 seconds according to the Racine's scale.
Four to ten animals were used for calculation of average seizure severity score at each dose.

Data set [2] concerns amygdala kindled male Wistar Kyoto rats. In words: Rat amygdala kindling model. It is filed as in vivo. The note with it: oral, 60 minutes after administration; FIGS. 1 to 3. How it is done: Male Wistar Kyoto rats (Charles River Japan) were used for the experiment. For implantation of kindling electrodes, rats were anesthetized with pentobarbital (65 mg/kg i.p.) and a tripolar electrode was implanted into the right hemisphere aimed at the basolateral amygdala using the coordinates derived from the atlas of Paxinos and Watson. Electrical stimulation of the amygdala was initiated following a recovery period of one week after surgery. […]
The threshold for induction of amygdala after discharges (ADT), i.e., epileptiform spikes on electroencephalogram (EEG), was measured for anti-seizure potency of compounds. In fully kindled rats, the ADT was determined by administering a series of stimulations beginning at […] and increasing in steps of about 25% of the previous current. […]
In the afternoon, test compounds were dissolved in the vehicle (a 1:1:1 mixture of polyethylene glycol 200, distilled water and DMSO), then orally administered to rats. […] The ADT was determined again 60 minutes after administration of drugs. The % of pre-value (morning results) was determined for each rat. Results were expressed as mean±SEM and analyzed by Dunnett's multiple comparisons test. […]

A short description of data set [3]: Rota rod test. It is filed as in vivo, mouse. The note with it: male, ddY, mouse, in vivo, po; dose at which fall off latency shorten by 50% of vehicle control value. The method, then: (§1) Rotarod apparatus (Rota-rod MK-660C, Muromachi-Kikai Co., Ltd.) was used for measurement. The motor was turned on and the rod rotation was continuously accelerated to a rate of 40 rpm over 180 sec.
(§2) Male ddY mice at an age of 5 weeks (Japan SLC) were used. On the experiment day, the mice were pretrained and only the animals able to remain on the rod for at least 60 s were selected for experiment.
(§3) Test compounds were dissolved in the vehicle (0.45% methyl cellulose/4.5% cremophor/10% dimethyl sulfoxide), then orally (p.o.) administered to mice. The vehicle was orally administered as controls. The effects of compounds were studied in groups of six to ten animals.
(§4) Latency for mice to fall off from the rod was measured. The toxic dose at which fall off latency shorten by 50% of vehicle control value (TD50) was calculated.
(§5) Therapeutic index were calculated by dividing the respective TD50 value in rota rod test by the ED50 value determined in the corneal kindling model.
On the technique in general: In the rotarod test animals must keep their balance on a rotating rod.

Data set [4] relates to male ddY mice. Nature of the data set: Rota rod test. Format: in vivo, mouse. The note with it: route p.o.; TD50 in rota rod test divided by ED50 in corneal kindling model. How it is done:
as §1, §2, §3, §4, §5

Data set [5] is described as follows: Rota rod test. Format: in vivo, mouse. The note with it: male, ddY, mouse, in vivo, intraperitoneal; route i.p; dose at which fall off latency shorten by 50% of vehicle control value.
Data set [6] concerns male ddY mice. In words: Rota rod test. It is filed as in vivo, mouse. The note with it: route i.p; TD50 in rota rod test divided by ED50 in corneal kindling model.
The mark [7] stands for this setting: dose 10 mg/kg, p.o., stimulation 1 hour after administration.
The mark [8] stands for this setting: dose 25 mg/kg, p.o., stimulation 1 hour after administration.
[9] abbreviates: dose 50 mg/kg, p.o., stimulation 1 hour after administration.
Setting [10] is: dose 10 mg/kg, i.p., stimulation 20 minutes after administration.
Where [11] appears, read: dose 25 mg/kg, i.p., stimulation 20 minutes after administration.

Consider `NS(=O)(=O)NC1c2c(Cl)cc(F)cc2CC1(F)F` (single isomer, unassigned; (-)) [Example 6, (−)-N-(7-chloro-2,2,5-trifluoro-2,3-dihydro-1H-inden-1-yl)sulfamide], for which the ED50 in data set [1] (po) was found to be 10.2 mg/kg. For the same compound, the entries for the “Seizure severity score (Average)” value in data set [1] (setting [7]), in data set [1] (setting [8]) and in data set [1] (setting [9]) were 1, 0 and 0.25, respectively. Also, the “after-discharge threshold (ADT), % of pre-value” in data set [2] is “dose-dependent elevation of after-discharge threshold”. This compound also displayed a TD50 in the data set “Rota rod test [3]” of 307 mg/kg. Besides, in the data set with male ddY mice [4], the Therapeutic index came to 30.1.
On to `NS(=O)(=O)NC1CCc2c(F)cc(F)c(F)c21` (single isomer, unassigned; (-)) [Example 29, (−)-N-(4,6,7-trifluoro-2,3-dihydro-1H-inden-1-yl)sulfamide], for which the ED50 in data set [1] (po) is 15.8 mg/kg. Also, the “Seizure severity score (Average)” value worked out at 3.5 in data set [1] (setting [7]), 0.83 in data set [1] (setting [8]) and 0 in data set [1] (setting [9]). In the data set “Rota rod test [3]”, this compound came in with a TD50 of 157 mg/kg. Further, in the data set on male ddY mice [4], the Therapeutic index is listed as 9.93.
Compound `NS(=O)(=O)NC1c2c(Cl)cccc2CC1(F)F` (single isomer, unassigned; (-)) [Example 8, (−)-N-(7-chloro-2,2-difluoro-2,3-dihydro-1H-inden-1-yl)sulfamide] yielded an ED50 in data set [1] (ip, route i.p) of 10.6 mg/kg. The “Seizure severity score (Average)” value in data set [1] (setting [10]) was found to be 3; in data set [1] (setting [11]), 0. Moreover, the TD50 in the data set “Rota rod test [5]” turned out to be 119 mg/kg. The compound also yielded a Therapeutic index with male ddY mice [6] of 11.2.
Take `NS(=O)(=O)N[C@H]1CCc2cc(F)cc(Cl)c21` [Example 21, N-[(1S)-7-chloro-5-fluoro-2,3-dihydro-1H-inden-1-yl]sulfamide]: the median effective dose (ED50) in data set [1] (po) came to 10.6 mg/kg. For the same compound, the results for the “Seizure severity score (Average)” value in data set [1] (setting [10]) and in data set [1] (setting [11]) were 4.25 and 2, respectively. For the same compound, the TD50 in the data set “Rota rod test [3]” is 234 mg/kg. The Therapeutic index in the data set on male ddY mice [4] was 22.1.
With `NS(=O)(=O)NC1CCc2ccccc21` (centres unmarked) [Reference compound, reference compound], the ED50 in data set [1] (po) is 40 mg/kg. Further, the “Seizure severity score (Average)” value was determined as 4.67 in data set [1] (setting [7]), 3.17 in data set [1] (setting [8]) and 1.33 in data set [1] (setting [9]). This compound yielded a TD50 in the data set “Rota rod test [3]” of 211 mg/kg. This compound yielded a Therapeutic index with male ddY mice [4] of 5.27.
For `NS(=O)(=O)NC1c2c(ccc(F)c2F)CC1(F)F` (single isomer, unassigned; (-)) [Example 5, (−)-N-(2,2,6,7-tetrafluoro-2,3-dihydro-1H-inden-1-yl)sulfamide], it took a dose of 5.7 mg/kg to reach the 50% effect level in data set [1] (po) (ED50). Also, the “Seizure severity score (Average)” value in data set [1] (setting [7]) turned out to be 2; in data set [1] (setting [8]), 0. This compound registered a TD50 in “Rota rod test [3]” of 404 mg/kg. This compound showed a Therapeutic index with male ddY mice [4] of 70.9.
In turn, `NS(=O)(=O)N[C@H]1c2c(F)cc(F)cc2CC1(F)F` [Example 1, N-[(1S)-2,2,5,7-tetrafluoro-2,3-dihydro-1H-inden-1-yl]sulfamide] showed an ED50 in data set [1] (po) of 7.9 mg/kg. The “Seizure severity score (Average)” value in data set [1] (setting [7]) worked out at 2; in data set [1] (setting [8]) it was 0; in data set [1] (setting [9]) it was 0. The TD50 in “Rota rod test [3]” came out at 390 mg/kg. This compound also displayed a Therapeutic index with male ddY mice [4] of 49.4.
As for `Cc1cccc2c1[C@H](NS(N)(=O)=O)C(F)(F)C2` [Example 11, N-[(1S)-2,2-Difluoro-7-methyl-2,3-dihydro-1H-inden-1-yl]sulfamide], in data set [1] (po), the ED50 was 5 mg/kg. The “Seizure severity score (Average)” value was 0.5 in data set [1] (setting [7]) and 0 in data set [1] (setting [8]). Also, the “after-discharge threshold (ADT), % of pre-value” in data set [2] was “dose-dependent elevation of after-discharge threshold”. Also, the TD50 in the data set “Rota rod test [3]” turned out to be 132 mg/kg. The compound further displayed a Therapeutic index in the data set on male ddY mice [4] of 26.4.
In turn, `NS(=O)(=O)N[C@H]1CCc2c(F)ccc(F)c21` [Example 19, N-[(1S)-4,7-difluoro-2,3-dihydro-1H-inden-1-yl]sulfamide] returned an ED50 in data set [1] (po) of 12.4 mg/kg. The “Seizure severity score (Average)” value came out at 2 in data set [1] (setting [7]) and 0 in data set [1] (setting [8]). Further, the TD50 in the data set “Rota rod test [3]” was 235 mg/kg. Besides, in the data set on male ddY mice [4], the Therapeutic index is reported as 19.0.
Turning to `Cc1cc(F)cc2c1[C@H](NS(N)(=O)=O)C(F)(F)C2` [Example 12, N-[(1S)-2,2,5-Trifluoro-7-methyl-2,3-dihydro-1H-inden-1-yl]sulfamide], the ED50 in data set [1] (po) came to 5.6 mg/kg. For the same compound, the “Seizure severity score (Average)” value in data set [1] (setting [7]) and in data set [1] (setting [8]) was 0 throughout. In the data set “Rota rod test [3]”, this compound gave a TD50 of 143 mg/kg. The compound further gave a Therapeutic index in the data set with male ddY mice [4] of 25.5.
